Test results from patent US6358885B1, “Substituted phenylheterocyclic herbicides” (Mississippi State University, priority 1992, dated 2002).

Tests used:
[1] = system: downy brome; experiment: Test C preemergence/postemergence greenhouse plant response rating 0 to 100; type: in vivo, Bromus tectorum; settings: for Plant response rating Downy Brome: 125 g/ha, 0 to 100 scale
Summary of the method: (§1)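 Compounds in non-phytotoxic solvent went onto sandy loam before emergence (seeded one day earlier) or onto plants at the one-to-four leaf stage. Duck salad was treated via flood water (~2.5 cm, maintained) over silt loam.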

[2] = system: giant foxtail; experiment: Test B preemergence/postemergence greenhouse plant response rating 0 to 10; type: in vivo, Setaria faberii; settings: for Plant response rating, Giant foxtail: 0 to 10 scale
Summary of the method: (§2)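 Planted seeds are treated preemergence with compound dissolved in a non-phytotoxic solvent, while postemergence applications go onto plants of two to eighteen cm. Plants stay in the greenhouse twelve to sixteen days and are then rated visually relative to controls.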

[3] = system: ryegrass; experiment: Test C preemergence/postemergence greenhouse plant response rating 0 to 100; type: in vivo, Lolium multiflorum; settings: for Plant response rating Ryegrass: 125 g/ha, 0 to 100 scale
Summary of the method: as §1

[4] = system: sugar beet; experiment: as above; type: in vivo, Beta vulgaris; settings: for Plant response rating, Sugar beet: 125 g/ha, 0 to 100 scale
Summary of the method: as §1

[5] = system: barley; experiment: as above; type: in vivo, Hordeum vulgare; settings: for Plant response rating Barley Igri: 125 g/ha, 0 to 100 scale
Summary of the method: as §1

[6] = system: chickweed; experiment: as above; type: in vivo, Stellaria media; settings: for Plant response rating, Chickweed: 125 g/ha, 0 to 100 scale
Summary of the method: as §1

[7] = system: chickweed; experiment: Test B preemergence/postemergence greenhouse plant response rating 0 to 10; type: in vivo, Stellaria media; settings: for Plant response rating, Chickweed: 0 to 10 scale
Summary of the method: as §2

[8] = system: soybean; experiment: Test C preemergence/postemergence greenhouse plant response rating 0 to 100; type: in vivo, Glycine max; settings: for Plant response rating, Soybean: 125 g/ha, 0 to 100 scale
Summary of the method: as §1

CCOCOc1cc(-c2nn3c(c2Cl)CCCC3)c(F)cc1Cl [Compound 59]
Plant response rating Downy Brome ([1]; POSTEMERGENCE): 90 | Plant response rating (0 to 100), Downy Brome ([1]; POSTEMERGENCE, Rate 2 g/ha): 20 | Plant response rating Downy Brome ([1]; PREEMERGENCE): 60 | Plant response rating (0 to 100), Downy Brome ([1]; PREEMERGENCE, Rate 2 g/ha): 0 | Plant response rating (0 to 100), Downy Brome ([1]; Rate 8 g/ha, POSTEMERGENCE): 50 | Plant response rating (0 to 100), Downy Brome ([1]; Rate 8 g/ha, PREEMERGENCE): 0 | Plant response rating (0 to 100), Downy Brome ([1]; Rate 31 g/ha, POSTEMERGENCE): 70 | Plant response rating (0 to 100), Downy Brome ([1]; Rate 31 g/ha, PREEMERGENCE): 30 | Plant response rating, Giant foxtail ([2]; POSTEMERGENCE, Rate 50 g/ha): 6 | Plant response rating, Giant foxtail ([2]; PREEMERGENCE, Rate 50 g/ha): 9 | Plant response rating (0 to 10 scale), Giant foxtail ([2]; PREEMERGENCE, Rate 200 g/ha): 10 | Plant response rating, Giant foxtail ([2]; Rate 200 g/ha, POSTEMERGENCE): 7 | Plant response rating Ryegrass ([3]; POSTEMERGENCE): 80 | Plant response rating (0 to 100), Ryegrass ([3]; POSTEMERGENCE, Rate 2 g/ha): 10 | Plant response rating Ryegrass ([3]; PREEMERGENCE): 90 | Plant response rating (0 to 100), Ryegrass ([3]; PREEMERGENCE, Rate 2 g/ha): 0 | Plant response rating (0 to 100), Ryegrass ([3]; Rate 8 g/ha, POSTEMERGENCE): 20 | Plant response rating (0 to 100), Ryegrass ([3]; Rate 8 g/ha, PREEMERGENCE): 20 | Plant response rating (0 to 100), Ryegrass ([3]; Rate 31 g/ha, POSTEMERGENCE): 40 | Plant response rating (0 to 100), Ryegrass ([3]; Rate 31 g/ha, PREEMERGENCE): 50 | Plant response rating, Sugar beet ([4]; POSTEMERGENCE): 100 | Plant response rating (0 to 100), Sugar beet ([4]; POSTEMERGENCE, Rate 2 g/ha): 90 | Plant response rating, Sugar beet ([4]; PREEMERGENCE): 100 | Plant response rating (0 to 100), Sugar beet ([4]; PREEMERGENCE, Rate 2 g/ha): 0 | Plant response rating (0 to 100), Sugar beet ([4]; Rate 8 g/ha, POSTEMERGENCE): 100 | Plant response rating (0 to 100), Sugar beet ([4]; Rate 8 g/ha, PREEMERGENCE): 30 | Plant response rating (0 to 100), Sugar beet ([4]; Rate 31 g/ha, POSTEMERGENCE): 100 | Plant response rating (0 to 100), Sugar beet ([4]; Rate 31 g/ha, PREEMERGENCE): 50 | Plant response rating Barley Igri ([5]; POSTEMERGENCE): 60 | Plant response rating (0 to 100), Barley Igri ([5]; POSTEMERGENCE, Rate 2 g/ha): 30 | Plant response rating Barley Igri ([5]; PREEMERGENCE): 10 | Plant response rating (0 to 100), Barley Igri ([5]; PREEMERGENCE, Rate 2 g/ha): 0 | Plant response rating (0 to 100), Barley Igri ([5]; Rate 8 g/ha, POSTEMERGENCE): 40 | Plant response rating (0 to 100), Barley Igri ([5]; Rate 8 g/ha, PREEMERGENCE): 0 | Plant response rating (0 to 100), Barley Igri ([5]; Rate 31 g/ha, POSTEMERGENCE): 50 | Plant response rating (0 to 100), Barley Igri ([5]; Rate 31 g/ha, PREEMERGENCE): 0 | Plant response rating, Chickweed ([6]; POSTEMERGENCE): 90 | Plant response rating (0 to 100), Chickweed ([6]; POSTEMERGENCE, Rate 2 g/ha): 20 | Plant response rating, Chickweed ([6]; PREEMERGENCE): 30 | Plant response rating (0 to 100), Chickweed ([6]; PREEMERGENCE, Rate 2 g/ha): 0 | Plant response rating (0 to 100), Chickweed ([6]; Rate 8 g/ha, POSTEMERGENCE): 40 | Plant response rating (0 to 100), Chickweed ([6]; Rate 8 g/ha, PREEMERGENCE): 0 | Plant response rating (0 to 100), Chickweed ([6]; Rate 31 g/ha, POSTEMERGENCE): 70 | Plant response rating (0 to 100), Chickweed ([6]; Rate 31 g/ha, PREEMERGENCE): 10 | Plant response rating, Chickweed ([7]; POSTEMERGENCE, Rate 50 g/ha): 6 | Plant response rating, Chickweed ([7]; PREEMERGENCE, Rate 50 g/ha): 4 | Plant response rating (0 to 10 scale), Chickweed ([7]; PREEMERGENCE, Rate 200 g/ha): 9 | Plant response rating, Chickweed ([7]; Rate 200 g/ha, POSTEMERGENCE): 8 | Plant response rating, Soybean ([8]; POSTEMERGENCE): 70 | Plant response rating (0 to 100), Soybean ([8]; POSTEMERGENCE, Rate 2 g/ha): 30 | Plant response rating, Soybean ([8]; PREEMERGENCE): 0 | Plant response rating (0 to 100), Soybean ([8]; PREEMERGENCE, Rate 2 g/ha): 0 | Plant response rating (0 to 100), Soybean ([8]; Rate 8 g/ha, POSTEMERGENCE): 50 | Plant response rating (0 to 100), Soybean ([8]; Rate 8 g/ha, PREEMERGENCE): 0 | Plant response rating (0 to 100), Soybean ([8]; Rate 31 g/ha, POSTEMERGENCE): 60 | Plant response rating (0 to 100), Soybean ([8]; Rate 31 g/ha, PREEMERGENCE): 0
